# Measured values as given in PubChem BioAssay (NCI).
#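 All cell lines were grown in 96-well plates and treated with compound for 48 hours. TGI denotes the concentration required for complete inhibition of growth.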
# Key:
# Assay in all cases: growth of human tumour cells (NCI), 48 h
# HCC-2998 colon = tested on: HCC-2998 colon
# SK-MEL-5 melanoma = tested on: SK-MEL-5 melanoma
# TK-10 renal = tested on: TK-10 renal
# MDA-MB-435 = tested on: MDA-MB-435
# SK-MEL-28 melanoma = tested on: SK-MEL-28 melanoma
# COLO 205 colon = tested on: COLO 205 colon
# HOP-92 NSCLC = tested on: HOP-92 NSCLC
# A549 NSCLC = tested on: A549 NSCLC
# MOLT-4 leukemia = tested on: MOLT-4 leukemia
# RXF 393 renal = tested on: RXF 393 renal
# K-562 leukemia = tested on: K-562 leukemia
# SR leukemia = tested on: SR leukemia
# NCI-H522 lung = tested on: NCI-H522 lung
# HT29 colon = tested on: HT29 colon
# MALME-3M melanoma = tested on: MALME-3M melanoma
# IGROV1 ovarian = tested on: IGROV1 ovarian
# SF-295 CNS = tested on: SF-295 CNS
# CAKI-1 renal = tested on: CAKI-1 renal
# SN12C renal = tested on: SN12C renal
# BT-549 breast = tested on: BT-549 breast
# OVCAR-4 ovarian = tested on: OVCAR-4 ovarian
# HOP-62 NSCLC = tested on: HOP-62 NSCLC
# MDA-MB-231 breast = tested on: MDA-MB-231 breast
# M14 melanoma = tested on: M14 melanoma
# LOX IMVI melanoma = tested on: LOX IMVI melanoma
# EKVX NSCLC = tested on: EKVX NSCLC
# PC-3 prostate = tested on: PC-3 prostate
# HCT-15 colon = tested on: HCT-15 colon
# CCRF-CEM leukemia = tested on: CCRF-CEM leukemia
# RPMI-8226 leukemia = tested on: RPMI-8226 leukemia
# SNB-19 CNS = tested on: SNB-19 CNS
# OVCAR-5 ovarian = tested on: OVCAR-5 ovarian
# MDA-N = tested on: MDA-N
# OVCAR-8 ovarian = tested on: OVCAR-8 ovarian
# MCF7 breast = tested on: MCF7 breast
# HS 578T breast = tested on: HS 578T breast
# UACC-257 melanoma = tested on: UACC-257 melanoma
# OVCAR-3 ovarian = tested on: OVCAR-3 ovarian
# ACHN renal = tested on: ACHN renal
# HL-60(TB) leukemia = tested on: HL-60(TB) leukemia
# 786-0 renal = tested on: 786-0 renal
# SW-620 colon = tested on: SW-620 colon
# DU-145 prostate = tested on: DU-145 prostate
# NCI-H460 lung = tested on: NCI-H460 lung
# SF-268 CNS = tested on: SF-268 CNS
# UACC-62 melanoma = tested on: UACC-62 melanoma
# NCI/ADR-RES ovarian = tested on: NCI/ADR-RES ovarian
# HCT-116 colon = tested on: HCT-116 colon
# T-47D breast = tested on: T-47D breast
# SK-MEL-2 melanoma = tested on: SK-MEL-2 melanoma
# NCI-H226 lung = tested on: NCI-H226 lung
# NCI-H23 lung = tested on: NCI-H23 lung
# SF-539 CNS = tested on: SF-539 CNS
# U251 CNS = tested on: U251 CNS
# SNB-75 CNS = tested on: SNB-75 CNS
# A498 renal = tested on: A498 renal
# KM12 colon = tested on: KM12 colon
# SK-OV-3 ovarian = tested on: SK-OV-3 ovarian
# UO-31 renal = tested on: UO-31 renal
smiles,measurement,setting,value
O=c1oc2ccc(Cl)cc2c2ccccc12,TGI,HCC-2998 colon,> 100 µM
same,TGI,SK-MEL-5 melanoma,> 100 µM
same,TGI,TK-10 renal,> 100 µM
same,TGI,MDA-MB-435,> 100 µM
same,TGI,SK-MEL-28 melanoma,> 100 µM
same,TGI,COLO 205 colon,> 100 µM
same,TGI,HOP-92 NSCLC,93.5 µM
same,TGI,A549 NSCLC,> 100 µM
same,TGI,MOLT-4 leukemia,> 100 µM
same,TGI,RXF 393 renal,58.9 µM
same,TGI,K-562 leukemia,> 100 µM
same,TGI,SR leukemia,> 100 µM
same,TGI,NCI-H522 lung,> 100 µM
same,TGI,HT29 colon,> 100 µM
same,TGI,MALME-3M melanoma,> 100 µM
same,TGI,IGROV1 ovarian,> 100 µM
same,TGI,SF-295 CNS,> 100 µM
same,TGI,CAKI-1 renal,> 100 µM
same,TGI,SN12C renal,> 100 µM
same,TGI,BT-549 breast,37 µM
same,TGI,OVCAR-4 ovarian,> 100 µM
same,TGI,HOP-62 NSCLC,45.1 µM
same,TGI,MDA-MB-231 breast,41.2 µM
same,TGI,M14 melanoma,> 100 µM
same,TGI,LOX IMVI melanoma,> 100 µM
same,TGI,EKVX NSCLC,> 100 µM
same,TGI,PC-3 prostate,> 100 µM
same,TGI,HCT-15 colon,> 100 µM
same,TGI,CCRF-CEM leukemia,> 100 µM
same,TGI,RPMI-8226 leukemia,> 100 µM
same,TGI,SNB-19 CNS,45.1 µM
same,TGI,OVCAR-5 ovarian,> 100 µM
same,TGI,MDA-N,> 100 µM
same,TGI,OVCAR-8 ovarian,> 100 µM
same,TGI,MCF7 breast,> 100 µM
same,TGI,HS 578T breast,77.2 µM
same,TGI,UACC-257 melanoma,> 100 µM
same,TGI,OVCAR-3 ovarian,> 100 µM
same,TGI,ACHN renal,> 100 µM
same,TGI,HL-60(TB) leukemia,> 100 µM
same,TGI,786-0 renal,> 100 µM
same,TGI,SW-620 colon,> 100 µM
same,TGI,DU-145 prostate,> 100 µM
same,TGI,NCI-H460 lung,> 100 µM
same,TGI,SF-268 CNS,50.5 µM
same,TGI,UACC-62 melanoma,> 100 µM
same,TGI,NCI/ADR-RES ovarian,> 100 µM
same,TGI,HCT-116 colon,> 100 µM
same,TGI,T-47D breast,> 100 µM
same,TGI,SK-MEL-2 melanoma,50.9 µM
same,TGI,NCI-H226 lung,> 100 µM
same,TGI,NCI-H23 lung,58.2 µM
same,TGI,SF-539 CNS,> 100 µM
same,TGI,U251 CNS,33.7 µM
same,TGI,SNB-75 CNS,97.4 µM
same,TGI,A498 renal,> 100 µM
O=[N+]([O-])/C(C(Cl)=C(Cl)Cl)=C(/Br)SCc1ccccc1,TGI,HCC-2998 colon,21.1 µM
same,TGI,SK-MEL-5 melanoma,16.4 µM
same,TGI,TK-10 renal,9.61 µM
same,TGI,MDA-MB-435,2.94 µM
same,TGI,SK-MEL-28 melanoma,4.09 µM
same,TGI,COLO 205 colon,3.43 µM
same,TGI,HOP-92 NSCLC,5.28 µM
same,TGI,A549 NSCLC,15.2 µM
same,TGI,MOLT-4 leukemia,1.03 µM
same,TGI,RXF 393 renal,4.01 µM
same,TGI,K-562 leukemia,2.04 µM
same,TGI,SR leukemia,4.2 µM
same,TGI,NCI-H522 lung,4.49 µM
same,TGI,HT29 colon,4.92 µM
same,TGI,MALME-3M melanoma,11.9 µM
same,TGI,IGROV1 ovarian,13.3 µM
same,TGI,SF-295 CNS,31.5 µM
same,TGI,CAKI-1 renal,3.65 µM
same,TGI,SN12C renal,5.8 µM
same,TGI,BT-549 breast,4.22 µM
same,TGI,OVCAR-4 ovarian,8.19 µM
same,TGI,HOP-62 NSCLC,41.7 µM
same,TGI,MDA-MB-231 breast,6.06 µM
same,TGI,M14 melanoma,5.79 µM
same,TGI,LOX IMVI melanoma,4.24 µM
same,TGI,EKVX NSCLC,12.5 µM
same,TGI,PC-3 prostate,7.21 µM
same,TGI,HCT-15 colon,4.98 µM
same,TGI,CCRF-CEM leukemia,0.633 µM
same,TGI,KM12 colon,28.5 µM
same,TGI,SK-OV-3 ovarian,36.4 µM
same,TGI,RPMI-8226 leukemia,3.39 µM
same,TGI,SNB-19 CNS,27.7 µM
same,TGI,OVCAR-5 ovarian,18.5 µM
same,TGI,MDA-N,4.04 µM
same,TGI,MCF7 breast,9.11 µM
same,TGI,HS 578T breast,47.7 µM
same,TGI,UACC-257 melanoma,11.3 µM
same,TGI,OVCAR-3 ovarian,5.02 µM
same,TGI,ACHN renal,6.85 µM
same,TGI,HL-60(TB) leukemia,0.905 µM
same,TGI,786-0 renal,4.64 µM
same,TGI,SW-620 colon,4.16 µM
same,TGI,DU-145 prostate,25.7 µM
same,TGI,NCI-H460 lung,24.1 µM
same,TGI,SF-268 CNS,7.2 µM
same,TGI,UACC-62 melanoma,16.1 µM
same,TGI,NCI/ADR-RES ovarian,15.3 µM
same,TGI,HCT-116 colon,4.13 µM
same,TGI,T-47D breast,13.5 µM
same,TGI,SK-MEL-2 melanoma,13.8 µM
same,TGI,UO-31 renal,5.72 µM
same,TGI,NCI-H226 lung,14.9 µM
same,TGI,NCI-H23 lung,12 µM
same,TGI,SF-539 CNS,21.4 µM
same,TGI,U251 CNS,14.5 µM
same,TGI,SNB-75 CNS,9.02 µM
same,TGI,A498 renal,15.2 µM
O=C1C(Cl)C2(CC(/C=C/c3cccs3)=NN2c2cccc(S(=O)(=O)O)c2)N1c1nc2ccccc2s1 (centres undefined),TGI,HCC-2998 colon,> 100 µM
same,TGI,SK-MEL-5 melanoma,> 100 µM
same,TGI,TK-10 renal,> 100 µM
same,TGI,MDA-MB-435,> 100 µM
same,TGI,SK-MEL-28 melanoma,> 100 µM
same,TGI,COLO 205 colon,> 100 µM
same,TGI,HOP-92 NSCLC,> 100 µM
same,TGI,A549 NSCLC,> 100 µM
same,TGI,MOLT-4 leukemia,> 100 µM
same,TGI,RXF 393 renal,> 100 µM
same,TGI,K-562 leukemia,> 100 µM
same,TGI,SR leukemia,> 100 µM
same,TGI,NCI-H522 lung,38.5 µM
same,TGI,HT29 colon,> 100 µM
same,TGI,MALME-3M melanoma,> 100 µM
same,TGI,IGROV1 ovarian,> 100 µM
same,TGI,CAKI-1 renal,> 100 µM
same,TGI,SN12C renal,> 100 µM
same,TGI,BT-549 breast,> 100 µM
same,TGI,OVCAR-4 ovarian,> 100 µM
same,TGI,MDA-MB-231 breast,> 100 µM
same,TGI,M14 melanoma,> 100 µM
same,TGI,LOX IMVI melanoma,> 100 µM
same,TGI,EKVX NSCLC,> 100 µM
same,TGI,PC-3 prostate,> 100 µM
same,TGI,HCT-15 colon,> 100 µM
same,TGI,CCRF-CEM leukemia,78.2 µM
same,TGI,KM12 colon,> 100 µM
same,TGI,RPMI-8226 leukemia,> 100 µM
same,TGI,SNB-19 CNS,> 100 µM
same,TGI,OVCAR-5 ovarian,> 100 µM
same,TGI,MDA-N,> 100 µM
same,TGI,OVCAR-8 ovarian,> 100 µM
same,TGI,MCF7 breast,> 100 µM
same,TGI,HS 578T breast,> 100 µM
same,TGI,UACC-257 melanoma,> 100 µM
same,TGI,ACHN renal,> 100 µM
same,TGI,HL-60(TB) leukemia,> 100 µM
same,TGI,786-0 renal,> 100 µM
same,TGI,SW-620 colon,> 100 µM
same,TGI,DU-145 prostate,> 100 µM
same,TGI,NCI-H460 lung,> 100 µM
same,TGI,SF-268 CNS,> 100 µM
same,TGI,UACC-62 melanoma,> 100 µM
same,TGI,NCI/ADR-RES ovarian,> 100 µM
same,TGI,HCT-116 colon,> 100 µM
same,TGI,T-47D breast,> 100 µM
same,TGI,SK-MEL-2 melanoma,> 100 µM
same,TGI,UO-31 renal,23.8 µM
same,TGI,NCI-H226 lung,> 100 µM
same,TGI,NCI-H23 lung,> 100 µM
same,TGI,SF-539 CNS,> 100 µM
same,TGI,U251 CNS,> 100 µM
same,TGI,SNB-75 CNS,> 100 µM
same,TGI,A498 renal,> 100 µM
